The results in this text go back to US20220125763A1, “COMPOSITIONS PROVIDING ENHANCED ANTIBACTERIAL ACTIVITY AGAINST GRAM-POSITIVE BACTERIA AND USE THEREOF” (ANIFERA LIMITED, priority 2019, published 2022).

Experiment in all cases: Minimum inhibitory concentration of antibiotic with or without imidazole compound
Common to all, as to assay type: cell-based

One assay relates to Staphylococcus aureus B8. The note with it: S. aureus B8. As for the experimental part:
(§1) Exemplary embodiments of a 2-(substituted-amino)-imidazole compound in combination with an antibiotic compound were tested to evaluate the effect on minimum inhibitory concentration (MIC).
(§2) In these experiments, a frozen stock of the bacterial strain was streaked onto a sterile brain heart infusion agar plate and incubated at 37° C. for 16-20 hours. After the incubation period, three to five well-isolated bacterial colonies of the same morphologic type were taken from the brain heart infusion agar plate culture and used to inoculate, using a sterile loop, a tube containing 4 mL to 5 mL of cation adjusted Mueller Hinton (MHII) broth. The culture was allowed to grow in a shaking incubator at 220 rpm at 37° C. until the culture reached logarithmic phase, as determined by the measuring of and achieving an optical density (OD) of 0.3 to 0.5 measured at 600 nm. The bacterial concentration of the culture was then adjusted with the addition of MHII broth to achieve the equivalent of 1×10^6 colony-forming unit (CFU)/mL using the approximation that 1×10^9 CFU/mL is equal to OD600 nm=1. Cells were then treated with the designated amount of test compound (shown in Table 1) or a solvent control (dimethyl sulfoxide) for 30 minutes at ambient conditions. Cells were then transferred into 96-well round bottom plates and exposed to 2-fold serial dilutions of the denoted antibiotic.

Assay [1] has as its system Coagulase-negative staphylococci CN58. As for the experimental part:
as §1, §2

The subject of assay [2] is Coagulase-negative staphylococci CN8. The protocol: as §1, §2
Assay [3] concerns Coagulase-negative staphylococci CN74. As for the experimental part:
as §1, §2

Assay [4] deals with Staphylococcus aureus Xen30. The note with it: S. aureus Xen30. The protocol: as §1, §2
For assay [5], the system named is Staphylococcus aureus B12. The note with it: S. aureus B12. The protocol: as §1, §2

`CC(C)Nc1ncc(-c2cccc(NC(=O)Nc3ccc(Cl)c(Cl)c3)c2)[nH]1` [Compound 1, 1-(3,4-dichlorophenyl)-3-(3-(2-(Isopropylamino)-1H-Imidazol-5-yl)phenyl)urea]: the “Minimum Inhibitory Concentration of penicillin” value in the assay on Staphylococcus aureus B8 (+Compound 1 at 2 μM) was 2 µg/mL; in assay [1] (+Compound 1 at 2 μM), 0.125 µg/mL; in assay [2] (+Compound 1 at 2 μM) it was 0.125 µg/mL; in assay [3] (+Compound 1 at 2 μM), 0.5 µg/mL; in assay [4] (+Compound 1 at 4 μM) it was 8 µg/mL; in assay [5] (+Compound 1 at 2 μM) it was 1 µg/mL.

Consider `Cc1onc(-c2ccccc2)c1C(=O)N[C@@H]1C(=O)N2[C@@H]1SC(C)(C)[C@@H]2C(=O)O` [Oxacillin], for which the MIC in assay [4] (Staphylococcus aureus, No imidazole compound, read-out: Minimum Inhibitory Concentration of Oxacillin) was 128 µg/mL.

Regarding penicillin, the “Minimum Inhibitory Concentration of penicillin” value was 64 µg/mL in the assay on Staphylococcus aureus B8 (No imidazole compound); 32 µg/mL in assay [1] (No imidazole compound); 2 µg/mL in assay [2] (No imidazole compound); 8 µg/mL in assay [3] (No imidazole compound); 128 µg/mL in assay [4] (No imidazole compound); 16 µg/mL in assay [5] (No imidazole compound).
